Numbering of substitutions follows the chain as printed. “And” between values parts separate entries of the source, which are not always exact repeats. Equal values may be shown once.
How the values were obtained:
Type in all cases: cell-based
B/KR(G810C/R/S) cells = assay: Cell viability assay, RET solvent-front mutants stated jointly; details: read-out: IC50s for B/KR(G810C/R/S) cells; stated jointly for G810C, G810R and G810S
Method: (§1) BaF3 cell lines expressing a flag-tagged KIF5B-RET (B/KR) and the KIF5B-RET containing G810C, G810R, G810S, V804M, V804L mutations were as reported.[8,13,17,21–23] […] Infected cells were cultured for two weeks, and cells with high GFP intensity were sorted into a 96-well plate (1 cell/well). After the expansion of growing cell lines, they were screened for a high level of luciferase activity by luminescence imaging after exposure to D-luciferin. IMR-90 cells were from ATCC.
(§2) The TEL-VEGFR2 cDNA was then subcloned into pLentP lentiviral vector.[21] and BaF3/TEL-VEGFR2 (B/TV) cells were generated by infecting BaF3 cells with the lentiviral TEL-VEGFR2 as described. Cell viability assay was performed using CellTiter-Glo reagent (G7573, Promega, Madison, WI, USA) after 3 days of drug treatment as described for BaF3-derived cells and 5 days for IMR-90 cells.

[1] = target: T1, B/KR(G810R) cells, KIF5B-RET G810R (Homo sapiens, UniProt P07949+P33176, G810R); assay: Cell viability assay (CellTiter-Glo, 3 days) in B/KR(G810R) cells
T1 construct: FLAG; expressed in transfected cells; host or cells: BaF3
T1 sequence (P07949 713-1063 G810R limits assumed): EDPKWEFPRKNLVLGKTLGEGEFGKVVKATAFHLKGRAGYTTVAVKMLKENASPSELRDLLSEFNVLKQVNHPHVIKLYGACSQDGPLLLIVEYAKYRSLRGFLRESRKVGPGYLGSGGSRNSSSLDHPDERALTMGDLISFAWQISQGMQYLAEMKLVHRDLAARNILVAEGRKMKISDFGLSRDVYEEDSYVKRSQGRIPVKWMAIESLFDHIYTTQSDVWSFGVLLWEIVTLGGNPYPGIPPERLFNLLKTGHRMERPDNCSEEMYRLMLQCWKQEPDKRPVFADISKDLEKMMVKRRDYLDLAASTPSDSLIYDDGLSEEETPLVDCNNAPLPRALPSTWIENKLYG
Method: as §1, §2

[2] = target: T2, B/KR(V804L) cells, KIF5B-RET V804L (Homo sapiens, UniProt P07949+P33176, V804L); assay: Cell viability assay (CellTiter-Glo, 3 days) in B/KR(V804L) cells
T2 construct: FLAG; expressed in transfected cells; host or cells: BaF3
T2 sequence (P07949 713-1063 V804L limits assumed): T1 sequence (P07949 713-1063 G810R limits assumed) with V92L, R98G
Method: as §1, §2

[3] = target: T3, B/KR(G810C) cells, KIF5B-RET G810C (Homo sapiens, UniProt P07949+P33176, G810C); assay: Cell viability assay (CellTiter-Glo, 3 days) in B/KR(G810C) cells
T3 construct: FLAG; expressed in transfected cells; host or cells: BaF3
T3 sequence (P07949 713-1063 G810C limits assumed): T1 sequence (P07949 713-1063 G810R limits assumed) with R98C
Method: as §1, §2

[4] = target: T4, B/KR(V804M) cells, KIF5B-RET V804M (Homo sapiens, UniProt P07949+P33176, V804M); assay: Cell viability assay (CellTiter-Glo, 3 days) in B/KR(V804M) cells
T4 construct: FLAG; expressed in transfected cells; host or cells: BaF3
T4 sequence (P07949 713-1063 V804M limits assumed): T1 sequence (P07949 713-1063 G810R limits assumed) with V92M, R98G
Method: as §1, §2

[5] = test system: KIF5B-RET autophosphorylation in B/KR and mutant cells; assay: Immunoblotting analysis of cell lysates; details: Fig. S1A
From the text: Figure S1. Immunoblotting analyses of cell lysates.
(A) Immunoblotting analysis of compounds on inhibition of KR or its mutant kinase activity and
induction of apoptosis in B/KR and mutant cells. (B) Immunoblotting analysis of HSN748-treated
(1 picture or pasted object on this page, not shown here)

[6] = test system: BaF3/TEL-VEGFR2 (B/TV) cells; assay: Cell viability assay (CellTiter-Glo, 3 days) in B/TV cells; details: ratio of B/TV IC50 to B/KR WT IC50
Method: as §2

[7] = target: T5, BaF3/TEL-VEGFR2 (B/TV) cells (Homo sapiens, UniProt P35968+P41212); assay: as above; details: TEL-VEGFR2-dependent BaF3 cells, 3 days; read-out: IC50 B/TV WT
T5 construct: fused to VEGFR2 (KDR) amino acids 807–1356; TEL (ETV6) amino acids 1–336 (N-terminal fusion partner); FLAG; expressed in transfected cells; host or cells: BaF3 (lentiviral pLentP TEL-VEGFR2)
T5 sequence (P41212+P35968 fused): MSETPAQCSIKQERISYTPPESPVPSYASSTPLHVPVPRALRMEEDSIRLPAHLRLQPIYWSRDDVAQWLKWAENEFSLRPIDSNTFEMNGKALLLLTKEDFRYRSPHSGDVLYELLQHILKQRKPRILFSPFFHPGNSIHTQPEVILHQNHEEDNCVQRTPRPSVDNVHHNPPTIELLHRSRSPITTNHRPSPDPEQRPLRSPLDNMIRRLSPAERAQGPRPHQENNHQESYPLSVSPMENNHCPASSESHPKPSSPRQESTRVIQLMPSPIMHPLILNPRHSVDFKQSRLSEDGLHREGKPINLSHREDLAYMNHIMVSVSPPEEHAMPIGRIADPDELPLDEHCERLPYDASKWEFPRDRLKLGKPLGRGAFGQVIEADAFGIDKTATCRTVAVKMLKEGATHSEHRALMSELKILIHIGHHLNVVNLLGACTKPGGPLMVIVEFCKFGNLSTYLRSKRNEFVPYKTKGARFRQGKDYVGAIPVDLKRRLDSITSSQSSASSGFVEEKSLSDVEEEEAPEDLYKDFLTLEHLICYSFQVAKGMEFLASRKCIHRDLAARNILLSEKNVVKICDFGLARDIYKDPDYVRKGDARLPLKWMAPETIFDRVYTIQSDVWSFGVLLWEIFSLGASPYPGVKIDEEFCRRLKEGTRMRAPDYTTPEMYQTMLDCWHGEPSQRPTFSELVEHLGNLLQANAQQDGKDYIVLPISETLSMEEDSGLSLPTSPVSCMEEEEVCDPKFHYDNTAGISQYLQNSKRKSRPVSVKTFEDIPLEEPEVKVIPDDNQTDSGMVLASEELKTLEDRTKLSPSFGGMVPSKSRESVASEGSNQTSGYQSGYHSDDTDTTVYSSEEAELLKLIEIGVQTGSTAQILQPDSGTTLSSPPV
Method: as §2

| SMILES | IC50 (B/KR(G810C/R/S) cells) [nM] | IC50 [1] [nM] | IC50 [2] | IC50 [3] [nM] | IC50 [4] | KIF5B-RET autophosphorylation and apoptosis (immunoblotting) [5] | VEGFR2/RET (fold) [6] [fold] | IC50 [7] [nM] |
| --- | --- | --- | --- | --- | --- | --- | --- | --- |
| CN1CCN(Cc2ccc(NC(=O)c3cncc(C#Cc4cnc5cccnn45)c3)cc2C(F)(F)F)CC1 [HSN748] | < 33 | 20.6 ± 1.42 | 55 nM and 55.7 nM | 7.93 ± 0.33 | 88 nM and 88.2 nM | inhibit KIF5B-RET autophosphorylation and induce apoptosis at low nanomolar concentrations | 1.81 | 7.34 ± 0.09 |
| CCOc1ccc2ncc(C#Cc3cncc(C(=O)Nc4ccc(CN5CCN(C)CC5)c(C(F)(F)F)c4)c3)n2n1 [HSND14, 5-((6-Ethoxyimidazo[1,2-b]pyridazin-3-yl)ethynyl)-N-(4-((4-methylpiperazin-1-yl)methyl)-3-(trifluoromethyl)phenyl)nicotinamide] | < 33 | 33 ± 0.67 | 30 ± 1.2 nM | 15.9 ± 0.72 | 20 ± 0.89 nM | inhibit KIF5B-RET autophosphorylation and induce apoptosis at low nanomolar concentrations | 1.71 | 6.88 ± 0.15 |
| Cc1n[nH]c2ncc(C#Cc3cncc(C(=O)Nc4ccc(CN5CCN(C)CC5)c(C(F)(F)F)c4)c3)cc12 [HSND19, 5-((3-Methyl-1H-pyrazolo[3,4-b]pyridin-5-yl)ethynyl)-N-(4-((4-methylpiperazin-1-yl)methyl)-3-(trifluoromethyl)phenyl)nicotinamide] | < 33 | 23.1 ± 1.39 | 20.6 ± 2.22 nM | 9.08 ± 1.63 | 6.52 ± 0.45 nM | inhibit KIF5B-RET autophosphorylation and induce apoptosis at low nanomolar concentrations | 2.85 | 5.56 ± 1.11 |
